According to ChEMBL document CHEMBL1909046, “DrugMatrix in vitro pharmacology data”:
pIC50, pKi: −log10 of the molar value.

Experiments:
[1] = molecular target: Delta-type opioid receptor (Homo sapiens, UniProt P41143); assay type: cell membranes, Membrane; settings: hek293; also: in other assays of this panel Not Active means under 50% inhibition at 10 µM
[2] = DRUGMATRIX: GABAA, Flunitrazepam, Central radioligand binding (ligand: [3H] Flunitrazepam); assay type: cell membranes, Rattus norvegicus, Wistar, Brain, Membrane; settings: Not Active = under 50% inhibition at 10 µM
Melanocortin receptor 5 = Melanocortin receptor 5 (Homo sapiens, UniProt P33032); assay type: cell membranes, HEK293, Membrane; settings: for IC50: hek293; for pIC50: read-out: IC50; for pKi: read-out: Ki; as to all read-outs here: in other assays of this panel Not Active means under 50% inhibition at 10 µM
[3] = molecular target: Epidermal growth factor receptor (Homo sapiens, UniProt P00533); assay: DRUGMATRIX: Protein Tyrosine Kinase, EGF Receptor enzyme inhibition (substrate: Poly(Glu:Tyr)); assay type: cell-based, Insect cells; settings: Not Active = under 50% inhibition at 10 µM; for IC50: insect cells; for pIC50: read-out: IC50
Nitric oxide synthase 1 = Nitric oxide synthase 1 (Rattus norvegicus, UniProt P29476); assay type: tissue-based, Cerebellum; also: in other assays of this panel Not Active means under 50% inhibition at 10 µM
[4] = molecular target: T1, Alpha-1A adrenergic receptor (Rattus norvegicus, UniProt P43140); assay: DRUGMATRIX: Alpha-1A adrenergic receptor radioligand binding (ligand: prazosin); assay type: cell membranes, Wistar, Submaxillary gland, Membrane; settings: Not Active = under 50% inhibition at 10 µM; for pIC50: read-out: IC50; for pKi: read-out: Ki
T1 sequence (P43140 whole entry): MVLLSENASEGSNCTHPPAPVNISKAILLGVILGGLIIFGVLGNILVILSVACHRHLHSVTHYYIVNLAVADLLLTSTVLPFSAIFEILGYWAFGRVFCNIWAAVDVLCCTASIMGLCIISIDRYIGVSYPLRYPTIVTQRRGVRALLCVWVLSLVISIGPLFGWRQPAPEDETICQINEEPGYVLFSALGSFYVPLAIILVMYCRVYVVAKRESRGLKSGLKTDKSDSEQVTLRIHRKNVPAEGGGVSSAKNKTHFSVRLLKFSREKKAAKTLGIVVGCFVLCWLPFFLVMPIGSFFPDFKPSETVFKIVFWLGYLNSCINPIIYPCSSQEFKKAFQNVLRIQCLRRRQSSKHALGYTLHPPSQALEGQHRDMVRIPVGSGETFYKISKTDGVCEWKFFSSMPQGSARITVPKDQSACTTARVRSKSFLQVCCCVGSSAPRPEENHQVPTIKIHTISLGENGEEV

Chain of Nitric oxide synthase 1 (P29476 whole entry): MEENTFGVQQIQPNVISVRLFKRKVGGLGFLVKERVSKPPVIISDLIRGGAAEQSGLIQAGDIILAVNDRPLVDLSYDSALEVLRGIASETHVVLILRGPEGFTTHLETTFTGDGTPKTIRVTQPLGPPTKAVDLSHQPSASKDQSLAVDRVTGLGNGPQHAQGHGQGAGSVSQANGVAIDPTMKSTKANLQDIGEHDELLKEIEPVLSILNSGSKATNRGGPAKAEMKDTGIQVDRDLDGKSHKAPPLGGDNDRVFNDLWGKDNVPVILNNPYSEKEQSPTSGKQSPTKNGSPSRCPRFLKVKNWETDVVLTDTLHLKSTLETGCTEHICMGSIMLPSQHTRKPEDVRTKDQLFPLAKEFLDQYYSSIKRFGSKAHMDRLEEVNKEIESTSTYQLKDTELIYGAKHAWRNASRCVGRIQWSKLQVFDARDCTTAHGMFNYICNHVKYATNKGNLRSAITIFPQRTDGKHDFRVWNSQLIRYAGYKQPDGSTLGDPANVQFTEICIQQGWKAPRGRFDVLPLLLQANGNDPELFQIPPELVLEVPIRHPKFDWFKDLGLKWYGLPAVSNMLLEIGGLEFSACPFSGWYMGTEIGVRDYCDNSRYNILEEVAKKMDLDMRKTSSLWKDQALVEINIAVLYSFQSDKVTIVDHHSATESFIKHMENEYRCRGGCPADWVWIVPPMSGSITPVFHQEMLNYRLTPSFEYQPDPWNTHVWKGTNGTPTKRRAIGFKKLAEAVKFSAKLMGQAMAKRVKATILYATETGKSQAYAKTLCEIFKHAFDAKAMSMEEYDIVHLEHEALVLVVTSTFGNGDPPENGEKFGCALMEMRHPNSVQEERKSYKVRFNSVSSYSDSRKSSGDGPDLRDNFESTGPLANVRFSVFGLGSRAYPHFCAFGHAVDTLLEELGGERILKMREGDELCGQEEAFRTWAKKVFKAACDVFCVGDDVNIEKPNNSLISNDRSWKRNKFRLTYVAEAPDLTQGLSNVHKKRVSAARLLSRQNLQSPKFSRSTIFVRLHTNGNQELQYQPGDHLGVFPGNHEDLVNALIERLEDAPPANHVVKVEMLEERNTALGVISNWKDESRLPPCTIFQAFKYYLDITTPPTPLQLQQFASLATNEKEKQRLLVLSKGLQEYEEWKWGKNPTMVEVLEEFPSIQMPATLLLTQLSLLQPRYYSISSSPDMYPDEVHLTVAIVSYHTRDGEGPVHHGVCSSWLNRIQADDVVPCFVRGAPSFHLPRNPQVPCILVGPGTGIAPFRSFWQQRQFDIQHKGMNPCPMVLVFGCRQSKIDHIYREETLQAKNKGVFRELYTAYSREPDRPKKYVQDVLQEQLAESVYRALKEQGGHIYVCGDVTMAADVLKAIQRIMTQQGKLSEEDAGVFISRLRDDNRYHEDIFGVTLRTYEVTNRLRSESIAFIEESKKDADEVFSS
Chain of Epidermal growth factor receptor (P00533 whole entry): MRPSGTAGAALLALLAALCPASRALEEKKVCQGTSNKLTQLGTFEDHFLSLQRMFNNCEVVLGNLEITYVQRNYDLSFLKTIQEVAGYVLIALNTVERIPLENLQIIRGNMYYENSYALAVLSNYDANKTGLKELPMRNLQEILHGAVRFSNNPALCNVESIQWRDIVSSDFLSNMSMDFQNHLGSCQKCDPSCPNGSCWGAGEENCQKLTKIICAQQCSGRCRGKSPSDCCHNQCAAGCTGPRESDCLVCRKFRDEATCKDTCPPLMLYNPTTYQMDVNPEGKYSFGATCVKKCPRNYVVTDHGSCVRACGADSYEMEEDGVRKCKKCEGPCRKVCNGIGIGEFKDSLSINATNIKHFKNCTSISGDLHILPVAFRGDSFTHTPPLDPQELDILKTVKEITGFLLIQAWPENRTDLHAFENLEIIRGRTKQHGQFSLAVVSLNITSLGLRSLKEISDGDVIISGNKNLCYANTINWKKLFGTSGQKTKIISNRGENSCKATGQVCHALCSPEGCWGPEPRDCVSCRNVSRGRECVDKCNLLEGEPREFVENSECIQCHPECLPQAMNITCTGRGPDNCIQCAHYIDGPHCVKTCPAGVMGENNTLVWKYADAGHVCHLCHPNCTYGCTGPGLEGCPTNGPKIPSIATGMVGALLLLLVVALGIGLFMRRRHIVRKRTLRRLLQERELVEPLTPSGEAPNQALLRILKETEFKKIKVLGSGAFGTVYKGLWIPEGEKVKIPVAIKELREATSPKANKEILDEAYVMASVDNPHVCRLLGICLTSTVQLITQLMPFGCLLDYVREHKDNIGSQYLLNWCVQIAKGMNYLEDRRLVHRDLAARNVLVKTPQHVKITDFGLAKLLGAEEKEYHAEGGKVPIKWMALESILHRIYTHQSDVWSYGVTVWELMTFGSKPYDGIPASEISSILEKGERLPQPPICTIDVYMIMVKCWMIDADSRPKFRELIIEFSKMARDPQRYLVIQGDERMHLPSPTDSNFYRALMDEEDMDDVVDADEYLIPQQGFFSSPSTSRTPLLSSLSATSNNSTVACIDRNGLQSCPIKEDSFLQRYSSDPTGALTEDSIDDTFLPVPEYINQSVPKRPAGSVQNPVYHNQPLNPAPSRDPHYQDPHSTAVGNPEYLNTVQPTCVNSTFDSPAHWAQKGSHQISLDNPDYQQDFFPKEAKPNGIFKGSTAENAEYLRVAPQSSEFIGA
Chain of Delta-type opioid receptor (P41143 whole entry): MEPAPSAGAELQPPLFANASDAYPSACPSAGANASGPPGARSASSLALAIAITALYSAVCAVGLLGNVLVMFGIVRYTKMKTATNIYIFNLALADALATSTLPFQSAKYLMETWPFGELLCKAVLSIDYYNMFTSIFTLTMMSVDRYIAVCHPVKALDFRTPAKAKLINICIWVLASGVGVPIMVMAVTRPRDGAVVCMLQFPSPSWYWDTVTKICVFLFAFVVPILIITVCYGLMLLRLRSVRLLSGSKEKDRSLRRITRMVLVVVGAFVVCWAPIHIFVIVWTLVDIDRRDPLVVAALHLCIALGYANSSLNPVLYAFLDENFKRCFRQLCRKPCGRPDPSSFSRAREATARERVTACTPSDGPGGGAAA
Chain of Melanocortin receptor 5 (P33032 whole entry): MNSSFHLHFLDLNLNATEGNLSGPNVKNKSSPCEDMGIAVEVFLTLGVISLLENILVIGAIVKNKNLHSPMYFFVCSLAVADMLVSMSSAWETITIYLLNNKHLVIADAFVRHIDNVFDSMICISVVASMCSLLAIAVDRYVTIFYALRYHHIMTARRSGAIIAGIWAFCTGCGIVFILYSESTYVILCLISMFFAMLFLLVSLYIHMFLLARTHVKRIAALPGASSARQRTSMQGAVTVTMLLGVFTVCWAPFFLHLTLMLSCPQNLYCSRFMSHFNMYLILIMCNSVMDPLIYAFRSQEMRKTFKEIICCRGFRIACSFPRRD

| Compound | IC50 [1] | IC50 [2] | Ki [2] | IC50 (Melanocortin receptor 5) | IC50 [3] | IC50 (Nitric oxide synthase 1) | IC50 [4] | pIC50 (Melanocortin receptor 5) | pKi (Melanocortin receptor 5) | pIC50 [3] | pIC50 [4] | pKi [4] | pIC50 ([2]; read-out: IC50) | pKi ([2]; read-out: Ki) |
| --- | --- | --- | --- | --- | --- | --- | --- | --- | --- | --- | --- | --- | --- | --- |
| Cc1c(C)c2c(c(C)c1O)CCC(C)(CN1CCN(c3cc(N4CCCC4)nc(N4CCCC4)n3)CC1)O2 (stereo not drawn) | Not Active | Not Active | Not Active | Not Active | Not Active | Not Active | Not Active |  |  |  |  |  |  |  |
| COc1ccc(CCN(C)CCCC(C#N)(c2ccc(OC)c(OC)c2)C(C)C)cc1OC (stereo not drawn) | Not Active | Not Active | Not Active | Not Active | Not Active | Not Active |  |  |  |  |  |  |  |  |
| CC(C)Cc1ccc([C@@H](C)C(=O)O)cc1 [(R)-IBUPROPHEN] | Not Active | Not Active | Not Active | Not Active | Not Active | Not Active | Not Active |  |  |  |  |  |  |  |
| CN(C)CCOC(c1ccccc1)c1ccccc1 [DIPHENHYDRAMINE] | Not Active |  |  | Not Active | Not Active | Not Active | Not Active |  |  |  |  |  |  |  |
| Clc1ccc(COC(Cn2ccnc2)c2ccc(Cl)cc2Cl)cc1 (stereo not drawn) [ECONAZOLE] |  |  |  |  |  | Not Active |  | 4.40 | 4.43 | 4.49 | 4.67 | 5.07 |  |  |
| CCN(CC)CCOc1ccc(/C(=C(/Cl)c2ccccc2)c2ccccc2)cc1 [ENCLOMIPHENE] | Not Active |  |  | Not Active |  | Not Active | Not Active |  |  | 5.98 |  |  |  |  |
| Fc1ccc(C(c2ccc(F)cc2)N2CCN(C/C=C/c3ccccc3)CC2)cc1 [FLUNARIZINE] | Not Active |  |  | Not Active | Not Active | Not Active |  |  |  |  | 5.96 | 6.36 |  |  |
| CNCCC(Oc1ccc(C(F)(F)F)cc1)c1ccccc1 (stereo not drawn) [FLUOXETINE] | Not Active |  |  | Not Active | Not Active | Not Active | Not Active |  |  |  |  |  |  |  |
| Cc1ccc(NC(=O)c2ccc(CN3CCN(C)CC3)cc2)cc1Nc1nccc(-c2cccnc2)n1 [IMATINIB] | Not Active |  |  | Not Active |  | Not Active | Not Active |  |  |  |  |  |  |  |
| CC(C)Oc1ccc2c(=O)c(-c3ccccc3)coc2c1 [IPRIFLAVONE] | Not Active | Not Active | Not Active | Not Active | Not Active | Not Active | Not Active |  |  |  |  |  |  |  |
| CC(C)NCC(O)c1ccc(O)c(O)c1 (stereo not drawn) [ISOPROTERENOL] | Not Active | Not Active | Not Active | Not Active | Not Active | Not Active | Not Active |  |  |  |  |  |  |  |
| CNC1(c2ccccc2Cl)CCCCC1=O (stereo not drawn) [KETAMINE] | Not Active | Not Active | Not Active | Not Active | Not Active | Not Active | Not Active |  |  |  |  |  |  |  |
| N#Cc1ccc(C(c2ccc(C#N)cc2)n2cncn2)cc1 [LETROZOLE] | Not Active | Not Active | Not Active | Not Active | Not Active | Not Active | Not Active |  |  |  |  |  |  |  |
| CCN1CCC[C@H]1CNC(=O)c1cc(S(N)(=O)=O)ccc1OC [LEVOSULPIRIDE] | Not Active | Not Active | Not Active | Not Active | Not Active | Not Active | Not Active |  |  |  |  |  |  |  |
| CCN(CC)CC(=O)Nc1c(C)cccc1C [LIDOCAINE] | Not Active | Not Active | Not Active | Not Active | Not Active | Not Active | Not Active |  |  |  |  |  |  |  |
| O=C1Nc2ccc(Cl)cc2C(c2ccccc2Cl)=NC1O (stereo not drawn) [LORAZEPAM] | Not Active |  |  | Not Active | Not Active | Not Active | Not Active |  |  |  |  |  | 8.20 | 8.29 |
| CO[C@@H]1[C@@H](OC)[C@H](C)[C@@](O)(CC(=O)O)O[C@H]1[C@H](C)[C@H]1O[C@@]2(CC[C@@](C)([C@H]3CC[C@@](C)([C@@H]4O[C@@H]([C@H]5O[C@](C)(O)[C@H](C)C[C@@H]5C)C[C@@H]4O[C@@H]4C[C@H](OC)[C@@H](OC)[C@H](C)O4)O3)O2)C[C@H](O)[C@H]1C [MADURAMICIN ACID] | Not Active | Not Active | Not Active | Not Active | Not Active | Not Active |  |  |  |  | 5.48 | 5.87 |  |  |
| COc1c2occc2cc2ccc(=O)oc12 [METHOXSALEN] | Not Active | Not Active | Not Active | Not Active | Not Active | Not Active | Not Active |  |  |  |  |  |  |  |
| C[C@H]1C[C@@H]2[C@H]([C@@H](O)C[C@@]3(C)[C@H]2CC[C@]3(O)C(=O)CO)[C@@]2(C)C=CC(=O)C=C12 [METHYLPREDNISOLONE] | Not Active | Not Active | Not Active | Not Active | Not Active | Not Active | Not Active |  |  |  |  |  |  |  |
| Cc1cccc(C)c1OCC(C)N (stereo not drawn) [MEXILETINE] | Not Active | Not Active | Not Active | Not Active | Not Active | Not Active | Not Active |  |  |  |  |  |  |  |
| Nc1cc(N2CCCCC2)nc(N)[n+]1[O-] [MINOXIDIL] | Not Active | Not Active | Not Active | Not Active | Not Active | Not Active | Not Active |  |  |  |  |  |  |  |
| CO[C@H]1/C=C/O[C@@]2(C)Oc3c(C)c(O)c4c(O)c(c(/C=N/N5CCN(C6CCCC6)CC5)c(O)c4c3C2=O)NC(=O)/C(C)=C\C=C\[C@H](C)[C@H](O)[C@@H](C)[C@@H](O)[C@@H](C)[C@H](OC(C)=O)[C@@H]1C [RIFAPENTINE] | Not Active | Not Active | Not Active | Not Active | Not Active | Not Active | Not Active |  |  |  |  |  |  |  |
| CCCCOc1cc(CC2CNC(=O)N2)ccc1OC (stereo not drawn) [RO-201724] | Not Active | Not Active | Not Active | Not Active | Not Active | Not Active | Not Active |  |  |  |  |  |  |  |
| CC[C@@H](C(=O)[C@@H](C)[C@@H](O)[C@H](C)[C@@H]1O[C@@H]([C@@H](CC)C(=O)O)CC[C@@H]1C)[C@H]1O[C@]2(C=C[C@@H](O)[C@]3(CC[C@@](C)([C@H]4CC[C@](O)(CC)[C@H](C)O4)O3)O2)[C@H](C)C[C@@H]1C [SALINOMYCIN] | Not Active | Not Active | Not Active | Not Active | Not Active | Not Active | Not Active |  |  |  |  |  |  |  |
| O=C(Oc1ccccc1C(=O)O)c1ccccc1O [SALSALATE] | Not Active | Not Active | Not Active | Not Active | Not Active | Not Active | Not Active |  |  |  |  |  |  |  |
| O=C(O)c1cn(-c2ccc(F)cc2)c2cc(N3CCNCC3)c(F)cc2c1=O [SARAFLOXACIN] | Not Active | Not Active | Not Active | Not Active | Not Active | Not Active | Not Active |  |  |  |  |  |  |  |
| CN[C@H]1CC[C@@H](c2ccc(Cl)c(Cl)c2)c2ccccc21 [SERTRALINE] | Not Active |  |  |  | Not Active | Not Active | Not Active | 5.34 | 5.37 |  |  |  |  |  |
| COc1cc2nc(N3CCN(C(=O)C4CCCO4)CC3)nc(N)c2cc1OC (stereo not drawn) [TERAZOSIN] | Not Active | Not Active | Not Active | Not Active | Not Active | Not Active |  |  |  |  |  |  |  |  |
